Reference: the NIST ThermoML archive (doi:10.1016/j.jct.2006.05.008)

Assay: molar heat capacity at constant pressure
Conditions: 101.33 kPa

CCC[n+]1ccn(C)c1.[Br-] [1-methyl-3-propylimidazolium bromide]
Conditions | molar heat capacity at constant pressure [J/K/mol]
270.71 K, Metastable crystal, Small (less than 1 g) adiabatic calorimetry | 224.7
270.82 K, Metastable crystal, Small (less than 1 g) adiabatic calorimetry | 229.03
271.87 K, Liquid, Small (less than 1 g) adiabatic calorimetry | 272.35
272 K, Crystal, Vacuum adiabatic calorimetry | 235.92
272.05 K, Liquid, Small (less than 1 g) adiabatic calorimetry | 273.02
273.43 K, Metastable crystal, Small (less than 1 g) adiabatic calorimetry | 235.43
273.97 K, Liquid, Small (less than 1 g) adiabatic calorimetry | 272.86
274.08 K, Crystal, Vacuum adiabatic calorimetry | 241.07
274.59 K, Liquid, Small (less than 1 g) adiabatic calorimetry | 273.93
275.18 K, Metastable crystal, Small (less than 1 g) adiabatic calorimetry | 235.92
276.07 K, Liquid, Small (less than 1 g) adiabatic calorimetry | 273.68
276.15 K, Crystal, Vacuum adiabatic calorimetry | 246.77
276.27 K, Metastable crystal, Small (less than 1 g) adiabatic calorimetry | 241.56
277.13 K, Liquid, Small (less than 1 g) adiabatic calorimetry | 274.62
277.85 K, Crystal, Vacuum adiabatic calorimetry | 253.97
278.17 K, Liquid, Small (less than 1 g) adiabatic calorimetry | 274.27
278.22 K, Crystal, Vacuum adiabatic calorimetry | 253.72
279.07 K, Metastable crystal, Small (less than 1 g) adiabatic calorimetry | 249.25
279.67 K, Liquid, Small (less than 1 g) adiabatic calorimetry | 275.3
280.27 K, Liquid, Small (less than 1 g) adiabatic calorimetry | 274.91
281.68 K, Metastable crystal, Small (less than 1 g) adiabatic calorimetry | 255.47
281.81 K, Metastable crystal, Small (less than 1 g) adiabatic calorimetry | 258.32
282.22 K, Liquid, Small (less than 1 g) adiabatic calorimetry | 276.12
282.37 K, Liquid, Small (less than 1 g) adiabatic calorimetry | 275.55
284.47 K, Liquid, Small (less than 1 g) adiabatic calorimetry | 276.33
284.5 K, Metastable crystal, Small (less than 1 g) adiabatic calorimetry | 269.64
284.76 K, Liquid, Small (less than 1 g) adiabatic calorimetry | 277
286.57 K, Liquid, Small (less than 1 g) adiabatic calorimetry | 276.88
287.11 K, Metastable crystal, Small (less than 1 g) adiabatic calorimetry | 284.18
287.31 K, Liquid, Small (less than 1 g) adiabatic calorimetry | 277.78
287.83 K, Metastable crystal, Small (less than 1 g) adiabatic calorimetry | 291.75
288.67 K, Liquid, Small (less than 1 g) adiabatic calorimetry | 277.6
289.86 K, Liquid, Small (less than 1 g) adiabatic calorimetry | 278.56
290.76 K, Liquid, Small (less than 1 g) adiabatic calorimetry | 278.25
292.42 K, Liquid, Small (less than 1 g) adiabatic calorimetry | 279.52
292.85 K, Liquid, Small (less than 1 g) adiabatic calorimetry | 278.99
294.97 K, Liquid, Small (less than 1 g) adiabatic calorimetry | 280.39
297.52 K, Liquid, Small (less than 1 g) adiabatic calorimetry | 281.17
300.09 K, Liquid, Small (less than 1 g) adiabatic calorimetry | 282.13
302.65 K, Liquid, Small (less than 1 g) adiabatic calorimetry | 282.97
305.21 K, Liquid, Small (less than 1 g) adiabatic calorimetry | 283.79
307.77 K, Liquid, Small (less than 1 g) adiabatic calorimetry | 284.73
310.34 K, Liquid, Small (less than 1 g) adiabatic calorimetry | 285.68
312.44 K, Liquid, Small (less than 1 g) adiabatic calorimetry | 286.13
315.01 K, Liquid, Small (less than 1 g) adiabatic calorimetry | 287.07
317.56 K, Liquid, Small (less than 1 g) adiabatic calorimetry | 287.97
320.1 K, Liquid, Small (less than 1 g) adiabatic calorimetry | 288.9
322.63 K, Liquid, Small (less than 1 g) adiabatic calorimetry | 289.74
325.17 K, Liquid, Small (less than 1 g) adiabatic calorimetry | 290.68
327.71 K, Liquid, Small (less than 1 g) adiabatic calorimetry | 291.56
330.24 K, Liquid, Small (less than 1 g) adiabatic calorimetry | 292.55
332.78 K, Liquid, Small (less than 1 g) adiabatic calorimetry | 293.41
335.3 K, Liquid, Small (less than 1 g) adiabatic calorimetry | 294.48
337.83 K, Liquid, Small (less than 1 g) adiabatic calorimetry | 295.38
340.36 K, Liquid, Small (less than 1 g) adiabatic calorimetry | 295.97
342.88 K, Liquid, Small (less than 1 g) adiabatic calorimetry | 296.86
345.4 K, Liquid, Small (less than 1 g) adiabatic calorimetry | 297.86
347.92 K, Liquid, Small (less than 1 g) adiabatic calorimetry | 298.8
350.44 K, Liquid, Small (less than 1 g) adiabatic calorimetry | 299.62
352.95 K, Liquid, Small (less than 1 g) adiabatic calorimetry | 300.4
355.46 K, Liquid, Small (less than 1 g) adiabatic calorimetry | 301.37
357.97 K, Liquid, Small (less than 1 g) adiabatic calorimetry | 302.27
359.15 K, Liquid, Small (less than 1 g) adiabatic calorimetry | 302.7
360.47 K, Liquid, Small (less than 1 g) adiabatic calorimetry | 303.23
361.69 K, Liquid, Small (less than 1 g) adiabatic calorimetry | 304.73
362.97 K, Liquid, Small (less than 1 g) adiabatic calorimetry | 304.73
364.23 K, Liquid, Small (less than 1 g) adiabatic calorimetry | 305.78
366.73 K, Liquid, Small (less than 1 g) adiabatic calorimetry | 305.51
